Activity calls are given as the source filed them. The rule behind the calls is not given here.
Experiments:
Type in all cases: functional, organism-based
Saccharomyces cerevisiae = experiment: Antimicrobial activity against Saccharomyces cerevisiae NRRL Y2034 by twofold dilution method
Candida albicans = experiment: Antimicrobial activity against Candida albicans by twofold dilution method
Aspergillus flavus = experiment: Antimicrobial activity against Aspergillus flavus NRRL 501 by twofold dilution method

Row | Compound | Activity (Saccharomyces cerevisiae) | Activity (Candida albicans) | Activity (Aspergillus flavus)
1 | CCCCCCCCCN1C(=O)SC[C@H]1[C@@]1(OC)C[C@H]2C[C@@H](CC[C@H](C)/C=C\CC/C(C)=C\C(=O)O2)O1 | inactive | inactive | inactive
2 | CCCCCCCCCCN1C(=O)SC[C@H]1[C@@]1(OC)C[C@H]2C[C@@H](CC[C@H](C)/C=C\CC/C(C)=C\C(=O)O2)O1 | inactive | inactive | inactive
3 | C/C1=C/C(=O)O[C@@H]2CC(CC[C@H](C)/C=C\C=C\CC1)O[C@@](O)([C@H]1CSC(=O)N1)C2 | Active | Active | Active
4 | CCCCCCCCN1C(=O)SC[C@H]1[C@@]1(OC)C[C@H]2C[C@@H](CC[C@H](C)/C=C\CC/C(C)=C\C(=O)O2)O1 | inactive | inactive | inactive
5 | CO[C@]1([C@@H]2CSC(=O)N2C)C[C@H]2C[C@@H](CC[C@H](C)/C=C\CC/C(C)=C\C(=O)O2)O1 | inactive | inactive | inactive
6 | CCCCCN1C(=O)SC[C@H]1[C@@]1(OC)C[C@H]2C[C@@H](CC[C@H](C)/C=C\CC/C(C)=C\C(=O)O2)O1 | inactive | inactive | inactive
7 | CCCCCCCCCCN1C(=O)SC[C@H]1[C@@]1(O)C[C@H]2C[C@@H](CC[C@H](C)/C=C\CC/C(C)=C\C(=O)O2)O1 | inactive | inactive | inactive
8 | C/C1=C/C(=O)O[C@@H]2C[C@@H](CC[C@H](C)/C=C\CC1)O[C@@](O)([C@H]1CSC(=O)N1)C2 | Active | Active | Active
9 | CCCCCCN1C(=O)SC[C@H]1[C@@]1(OC)C[C@H]2C[C@@H](CC[C@H](C)/C=C\CC/C(C)=C\C(=O)O2)O1 | inactive | inactive | inactive
10 | CO[C@]1([C@@H]2CSC(=O)N2)C[C@H]2C[C@@H](CC[C@H](C)/C=C\CC/C(C)=C\C(=O)O2)O1 | inactive | inactive | inactive
11 | C/C1=C/C(=O)O[C@@H]2C[C@@H](CC[C@H](C)/C=C\C=C\CC1)O[C@@](O)([C@@H]1CSC(=O)N1)C2 | Active | Active | Active
12 | C/C1=C/C(=O)O[C@@H]2C[C@@H](CC[C@H](C)/C=C\CC1)O[C@@](O)([C@@H]1CSC(=O)N1)C2 | Active | Active | Active
